# Active and inactive are the calls of the source.
# Key:
# [1] = system: INS1; assay: INS-1E survival protection against cytokine death – cell-based, luminescence, retest, dose response (AID 449756); type: functional; settings: Rattus norvegicus;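 note: cell death triggered by IL-1 beta plus TNF-alpha plus IFN-gamma mixture; protective hits raise ATP signal compared with cytokine alone wells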
# [2] = Luminescence Cell-Based Dose Retest to Confirm Inhibitors of Cancer Stem Cells. [Related pubchem assays (depositor defined):AID2717, AID2721]; type: functional; settings: Homo sapiens
# [3] = viability of HCT116 lacking mutant beta-catenin – cell-based, human colon tumor, dose response (AID 1045); type: functional;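 note: HCT116 colon tumor cells with beta catenin knocked out; cells exposed to compound for 60 hours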
# [4] = viability of PTEN-deleted HCT116 cells – cell-based, HCT116 PTEN knockout, dose response (AID 1047); type: functional;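 note: HCT116 colon tumor cells with PTEN knocked out; cells exposed to compound for 60 hours before readout; potency for loss of cell viability measured by luminescence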
# [5] = target: FAD-linked sulfhydryl oxidase ALR (Homo sapiens, UniProt P55789); assay: ALR-catalysed DTT oxidation blockers – biochemical, H2O2 detection, luminescence, cherry-pick, dose response (AID 493248)
# [6] = target: T1, High affinity choline transporter 1 (Homo sapiens, UniProt Q9GZV3); assay: human choline transporter blockers, potency – cell-based, 5-point CRC, membrane potential dye, dose response (AID 504840); type: functional
# T1 sequence (Q9GZV3 whole entry): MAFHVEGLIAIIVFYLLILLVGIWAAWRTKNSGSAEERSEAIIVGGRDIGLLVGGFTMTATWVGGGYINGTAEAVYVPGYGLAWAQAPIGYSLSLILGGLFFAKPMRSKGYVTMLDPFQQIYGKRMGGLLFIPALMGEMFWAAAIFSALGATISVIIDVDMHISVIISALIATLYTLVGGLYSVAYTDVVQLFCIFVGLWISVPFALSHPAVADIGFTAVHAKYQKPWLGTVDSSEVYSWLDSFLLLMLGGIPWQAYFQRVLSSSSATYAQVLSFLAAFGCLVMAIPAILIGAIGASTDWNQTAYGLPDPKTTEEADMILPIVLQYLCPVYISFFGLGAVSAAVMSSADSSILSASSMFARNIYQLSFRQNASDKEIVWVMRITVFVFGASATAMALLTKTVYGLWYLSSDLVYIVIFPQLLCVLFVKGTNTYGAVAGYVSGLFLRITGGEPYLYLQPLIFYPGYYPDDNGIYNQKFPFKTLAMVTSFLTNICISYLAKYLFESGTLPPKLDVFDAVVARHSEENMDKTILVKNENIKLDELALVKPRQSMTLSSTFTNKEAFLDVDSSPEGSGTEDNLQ
# [7] = system: Vero; assay: cells; type: functional; settings: Chlorocebus sabaeus
# [8] = target: Estrogen receptor beta (Homo sapiens, UniProt Q92731);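 note: recombinant ER-beta bound to coactivator SRC1 peptide in presence of estradiol agonist; inhibitors block coactivator peptide binding and lower the FRET signal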
# [9] = target: T2, Streptokinase A (Streptococcus pyogenes serotype M1, UniProt P10520); assay: viability-normalized secreted streptokinase activity reduction – plasminogen activation absorbance, OD405, dose response (AID 1914); type: functional, Streptococcus pyogenes M1 GAS;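 note: secreted streptokinase activity via plasminogen activation per viability signal from cell pellet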
# T2 sequence (P10520 whole entry): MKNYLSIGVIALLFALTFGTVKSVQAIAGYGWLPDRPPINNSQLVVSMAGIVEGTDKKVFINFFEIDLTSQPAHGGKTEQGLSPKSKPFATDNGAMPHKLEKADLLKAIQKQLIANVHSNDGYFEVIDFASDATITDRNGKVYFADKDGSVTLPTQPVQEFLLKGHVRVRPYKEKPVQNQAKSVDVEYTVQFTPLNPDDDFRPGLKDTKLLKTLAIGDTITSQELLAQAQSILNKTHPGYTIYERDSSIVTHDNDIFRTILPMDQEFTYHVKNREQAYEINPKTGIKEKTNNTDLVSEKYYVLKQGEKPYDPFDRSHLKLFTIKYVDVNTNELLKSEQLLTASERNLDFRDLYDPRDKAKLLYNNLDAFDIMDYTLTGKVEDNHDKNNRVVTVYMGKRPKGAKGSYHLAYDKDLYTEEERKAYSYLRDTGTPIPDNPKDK
# [10] = system: Streptococcus sp. 'group A'; assay: Streptococcus pyogenes SK(-)GAS viability under kanamycin – luminescence, BacTiterGlo, confirmation, counter-screen for streptokinase expression inhibitor project, dose response (AID 1900); type: functional, organism-based
# [11] = target: T3, Heat shock factor protein 1 (Mus musculus, UniProt P38532); assay: enhancement of HSF1-driven luciferase signal – cell-based, NIH3T3, luminescence, dose retest, confirmation (AID 435004); type: functional;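 note: stress induced by proteasome inhibitor MG132 added 30 min after compound; luciferase reporter driven by HSF1 response element in NIH3T3 cells; actives raise luminescence as potentiators of the MG132 stress response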
# T3 sequence (P38532 whole entry): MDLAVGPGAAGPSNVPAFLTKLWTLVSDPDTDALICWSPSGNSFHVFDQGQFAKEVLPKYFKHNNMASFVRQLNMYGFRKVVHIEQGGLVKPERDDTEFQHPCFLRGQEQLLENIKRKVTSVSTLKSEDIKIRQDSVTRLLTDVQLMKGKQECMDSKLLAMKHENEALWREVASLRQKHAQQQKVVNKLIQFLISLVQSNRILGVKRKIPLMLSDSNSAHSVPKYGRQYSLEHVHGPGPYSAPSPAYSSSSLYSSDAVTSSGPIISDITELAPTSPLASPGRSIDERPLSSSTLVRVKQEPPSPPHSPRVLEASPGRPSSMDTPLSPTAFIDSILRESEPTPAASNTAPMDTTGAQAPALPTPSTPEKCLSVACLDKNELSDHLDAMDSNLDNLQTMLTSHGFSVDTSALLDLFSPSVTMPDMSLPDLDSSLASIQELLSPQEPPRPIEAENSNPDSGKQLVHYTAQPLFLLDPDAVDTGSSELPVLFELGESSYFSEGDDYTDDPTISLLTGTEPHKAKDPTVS
# [12] = system: Streptococcus; assay: GAS UMAA2166 growth inhibition – luminescence, BacTiterGlo, counter-screen for streptokinase expression inhibitor project, dose response (AID 1915); type: functional, organism-based;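 note: potency for reduction of bacterial viability or growth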
# [13] = target: Glyceraldehyde-3-phosphate dehydrogenase (Homo sapiens, UniProt P04406)
# [14] = viability loss in HeLa cells – cytotoxicity control for MgcRacGAP inhibitor project, dose response (AID 624300); type: functional
# [15] = target: T4, Rac GTPase-activating protein 1 (Homo sapiens, UniProt Q9H0H5); assay: blockers of MgcRacGAP-driven Rac1 GTP hydrolysis – biochemical, ADP Hunter fluorescence, primary and confirmatory, confirmation (AID 624330); type: functional
# T4 sequence (Q9H0H5 whole entry): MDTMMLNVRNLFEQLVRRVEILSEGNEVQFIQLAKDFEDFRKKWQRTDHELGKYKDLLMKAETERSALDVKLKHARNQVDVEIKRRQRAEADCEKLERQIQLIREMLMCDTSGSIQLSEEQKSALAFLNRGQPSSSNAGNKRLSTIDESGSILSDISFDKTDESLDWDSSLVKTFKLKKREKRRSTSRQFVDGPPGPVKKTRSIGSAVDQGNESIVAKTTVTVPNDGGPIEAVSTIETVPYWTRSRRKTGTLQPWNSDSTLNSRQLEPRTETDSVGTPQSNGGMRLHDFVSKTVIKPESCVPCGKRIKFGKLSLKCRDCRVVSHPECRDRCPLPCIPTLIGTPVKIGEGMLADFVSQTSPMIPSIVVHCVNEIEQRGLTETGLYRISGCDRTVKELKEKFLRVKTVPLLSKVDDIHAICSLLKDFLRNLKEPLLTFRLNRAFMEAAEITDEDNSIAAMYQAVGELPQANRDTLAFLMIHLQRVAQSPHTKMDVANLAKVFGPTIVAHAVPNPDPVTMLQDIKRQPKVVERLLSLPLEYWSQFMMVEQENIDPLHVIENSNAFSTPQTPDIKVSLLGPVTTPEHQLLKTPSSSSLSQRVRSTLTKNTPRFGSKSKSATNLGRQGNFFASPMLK
# Sequence of Glyceraldehyde-3-phosphate dehydrogenase (P04406 whole entry): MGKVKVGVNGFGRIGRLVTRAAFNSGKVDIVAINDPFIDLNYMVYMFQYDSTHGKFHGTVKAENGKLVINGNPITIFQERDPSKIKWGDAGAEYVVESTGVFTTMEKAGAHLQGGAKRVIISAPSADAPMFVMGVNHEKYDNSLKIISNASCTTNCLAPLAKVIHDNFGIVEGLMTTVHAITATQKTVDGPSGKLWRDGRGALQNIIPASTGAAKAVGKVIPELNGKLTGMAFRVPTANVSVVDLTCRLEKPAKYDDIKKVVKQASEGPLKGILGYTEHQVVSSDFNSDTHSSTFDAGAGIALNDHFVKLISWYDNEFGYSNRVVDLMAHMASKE
# Sequence of FAD-linked sulfhydryl oxidase ALR (P55789 whole entry): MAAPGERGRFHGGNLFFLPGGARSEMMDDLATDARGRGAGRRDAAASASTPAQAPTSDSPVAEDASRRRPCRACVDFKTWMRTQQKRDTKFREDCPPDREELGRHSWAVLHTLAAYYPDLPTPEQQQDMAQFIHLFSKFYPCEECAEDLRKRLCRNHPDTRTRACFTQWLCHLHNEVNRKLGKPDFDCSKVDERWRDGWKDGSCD
# Sequence of Estrogen receptor beta (Q92731 whole entry): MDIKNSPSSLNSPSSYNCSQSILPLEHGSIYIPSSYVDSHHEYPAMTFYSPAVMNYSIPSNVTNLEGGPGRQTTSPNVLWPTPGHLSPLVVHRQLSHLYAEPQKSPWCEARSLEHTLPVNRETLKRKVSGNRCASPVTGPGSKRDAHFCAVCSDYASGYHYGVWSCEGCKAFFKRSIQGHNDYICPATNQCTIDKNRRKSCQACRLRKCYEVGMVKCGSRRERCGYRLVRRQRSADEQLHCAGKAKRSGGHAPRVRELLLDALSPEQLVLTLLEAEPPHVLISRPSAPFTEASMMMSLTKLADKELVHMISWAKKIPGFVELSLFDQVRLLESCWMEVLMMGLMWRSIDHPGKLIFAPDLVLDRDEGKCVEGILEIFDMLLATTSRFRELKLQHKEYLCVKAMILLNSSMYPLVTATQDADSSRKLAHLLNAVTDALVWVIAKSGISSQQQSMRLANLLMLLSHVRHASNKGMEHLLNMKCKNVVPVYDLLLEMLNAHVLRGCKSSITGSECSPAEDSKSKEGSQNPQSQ
structure (smiles),measurement,setting,value
C=CCn1c(SCC(=O)c2[nH]c(C)c(C(=O)OCC)c2C)nc2scc(-c3ccc(OC)c(OC)c3)c2c1=O,AC50,[1],3.37 µM (active)
same,AC50,[2],2.05 µM (active)
same,EC50,[3],7.26 µM (active)
same,EC50,[4],6.55 µM (active)
Clc1ccc(-c2nc3cnccn3c2NC2CCCC2)cc1,AC50,[5],4.85 µM (active)
O=C(c1ccc2c(c1)OCO2)N1CCN=C1SCc1ccccc1,AC50,[5],> 100 µM (inactive)
O=c1cc(-c2ccccc2)c2c(O)cc(O)cc2o1,IC50,[6],13.7 µM (active)
CCn1cc(/C=C(\NC(=O)c2ccccc2F)C(=O)NCCCn2ccnc2)c2ccccc21,IC50,[6],14.5 µM (active)
O=C(Nc1ccccc1C(F)(F)F)N1CCN(c2ccc3nnc(-c4ccc(F)cc4)n3n2)CC1,CC50,[7],> 25 µM (active)
CN1CCCC(OC(=O)c2ccc3c(c2)OCCO3)C1 (stereo not drawn),IC50,[8],> 50 µM (not active)
OC(CNCc1ccco1)Cn1c2ccc(Br)cc2c2cc(Br)ccc21 (stereo not drawn),EC50,[9],> 150 µM (not active)
same,EC50,[10],4.22 µM (active)
same,EC50,[11],> 260 µM (inactive)
same,AC50,[2],3 µM (active)
same,EC50,[12],13.7 µM (active)
same,EC50,[3],8.59 µM (active)
same,EC50,[4],9.13 µM (active)
Cc1ccc(-n2nnnc2Sc2ccc(S(=O)(=O)NCCN(C)C)cc2[N+](=O)[O-])cc1,AC50,[2],2.59 µM (active)
same,EC50,[3],2.05 µM (active)
same,EC50,[4],2.26 µM (active)
O=C(CSc1nc2ccccc2s1)NO,IC50,[13],> 100 µM (not active)
CN1CCN(C2=C(Cl)C(=O)N(c3ccc(Cl)nc3)C2=O)CC1,IC50,[13],> 50 µM (inconclusive)
Cc1ccc(-c2[nH]c3ccccc3c2SCCNC(=O)c2ccc(S(=O)(=O)N3CCOCC3)cc2)cc1,EC50,[3],152 µM (active)
same,EC50,[4],112 µM (active)
Cc1ccc(-c2cc(C(=O)N3CCN(c4ccc(O)cc4)CC3)c3ccccc3n2)cc1,CC50,[14],100 µM (active)
same,IC50,[15],88 µM (active)
same,AC50,[2],6.6 µM (active)
O=C(O)CCC(=O)Nc1ccc(O)c(C(=O)O)c1,IC50,[13],> 100 µM (not active)

# From ChEMBL document CHEMBL1201862, “PubChem BioAssay data set” (2004)
